Data as given in patent publication US20250304911A1, “CYSTEINE PROTOTROPHY” (Pfizer Inc., priority 2022, published 2025).

Assays:
GNMT cell pool = experiment: Sequential batch culture of GNMT cell pool with or without BME; type: cell-based, Chinese hamster; settings: cysteine-free CD-CHO, 50 uM BME, within one passage, FIG. 8
Experimental: (§1) GNMT cell pools and CBS+CTH cell pools that had been adapted to grown in cysteine-free and homocysteine-free conditions as described in Example 7 were cultivated in 3-day or 4-day sequential batch cultures in cysteine-free CD-CHO media with or without 50 uM BME with the aim of testing the growth and adapting the cells to BME free conditions.

CBS+CTH cell pool = experiment: Sequential batch culture of CBS+CTH cell pool with or without BME; type: cell-based, Chinese hamster; settings: cysteine-free CD-CHO, 50 uM BME, FIG. 8
Experimental: as §1

GNMT clone 16 = experiment: Batch shake flask maintenance culture with oleic acid and ferroptosis inducers, GNMT clone 16; settings: for Viability / Viable Cell Density: Clone 16; for Growth and viability in iron and zinc supplemented cultures compared to untreated: 12 uM ferrous sulphate, 10 uM zinc sulfate, with or without prior OA
Experimental: (§2) Two GNMT clones, clone 9 and 16, were cultivated for two passages in cysteine-free CD-CHO medium with and without oleic acid. In the oleic acid supplemented conditions, first passage received 1 micromolar (uM) of oleic acid and the second passage received 10 uM of oleic acid. In the third passage, the clones were cultivated in absence of OA but growth in presence of ferroptosis inducers, iron (12 uM ferrous sulphate) and zinc (10 uM zinc sulfate) to understand impact of prior culture in OA on ferroptosis.

GNMT clone 9 = experiment: Batch shake flask maintenance culture with oleic acid and ferroptosis inducers, GNMT clone 9; settings: for Viability / Viable Cell Density: Clone 9
Experimental: as §2

GNMT clone 15 = experiment: pH-adjusted fedbatch culture with Fer1, OA or Vitamin K1, GNMT clone 15; type: cell-based, Chinese hamster; settings: for Viabilities by the end of the culture, treated versus untreated: 1 uM Fer1 or 10 uM OA on days 0, 5 and 6, FIG. 11A
Experimental: (§3) Two GNMT clones (overexpressing CBS, CTH and GNMT), clone 15 and 19, were cultivated in pH-adjusted fedbatch cultures in multiple shake flasks. Cells were seeded at 0.5E6 cell/mL in cysteine-free internal basal medium and were fed with 1% cysteine-free, nutrient rich medium daily starting day 4. For the first set of shake flasks, cultures for each clone were treated with 1 uM of Fer1 or 10 uM of OA on days 0, 5 and 6, or left untreated. For the second set of shake flasks, cultures for each clone were treated with 10 uM of Vitamin K1 on days, 0, 4, 5 and 6. Viable cell densities and viabilities were measured on various days during the fedbatch culture.

[1] = system: GNMT cells (CHO cell pools overexpressing CBS, CTH and GNMT); experiment: Growth of GNMT cell pool in L-homocysteine supplemented cysteine free CD CHO medium; type: cell-based, Chinese hamster; settings: FIG. 4
Experimental: (§4) Next, the growth of CHO cell pools overexpressing CBS and CTH (referred to as “CBS+CTH” cells) or overexpressing CBS, CTH and GNMT (referred to as “GNMT” cells) was evaluated in cysteine free CD CHO medium or L-homocysteine supplemented cysteine free CD CHO medium. […] Subsequently, as described in more detail in Example 7, the CBS+CTH and the GNMT cell pools were adapted to grow in L-homocysteine free conditions. For both the CBS+CTH and GNMT cell pools, gene expression levels of CTH, CBS, GNMT and MTR were measured before and after adaptation to L-homocysteine free conditions (Table 5).

[2] = system: CBS+CTH cells (CHO cell pools overexpressing CBS and CTH); experiment: Growth of CBS+CTH cell pool in L-homocysteine supplemented cysteine free CD CHO medium; type: cell-based, Chinese hamster; settings: FIG. 4
Experimental: as §4

GNMT clone 19 = experiment: pH-adjusted fedbatch culture with Fer1, OA or Vitamin K1, GNMT clone 19; type: cell-based, Chinese hamster; settings: 10 uM Vitamin K1 on days 0, 4, 5 and 6, FIG. 11B
Experimental: as §3

[3] = +10 uM OA (prior passages), Day 0, CD CHO alone, + 12 uM FeSO4 or + 10 uM ZnSO4
[4] = +10 uM OA (prior passages), Day 3, CD CHO alone, + 12 uM FeSO4 or + 10 uM ZnSO4
[5] = +10 uM OA (prior passages), Day 4, CD CHO alone, + 12 uM FeSO4 or + 10 uM ZnSO4
[6] = No OA, Day 0, CD CHO + 12 uM FeSO4 or + 10 uM ZnSO4
[7] = No OA, Day 3, CD CHO + 12 uM FeSO4 or + 10 uM ZnSO4
[8] = No OA, Day 4, CD CHO + 12 uM FeSO4 or + 10 uM ZnSO4

OCCS [BME, beta mercaptoethanol]
Growth and viability in BME free conditions versus with BME (GNMT cell pool): comparable | Growth and viabilities between BME-free and BME containing conditions (CBS+CTH cell pool): significantly different growth and viabilities

O=S(=O)([O-])[O-].[Fe+2] [FeSO4, ferrous sulphate]
Viability (GNMT clone 16; [3]): 99.6% | Viable Cell Density (GNMT clone 16; [3]): 3.63 E5 c/mL | Viability (GNMT clone 16; [4]): 98.6% | Viable Cell Density (GNMT clone 16; [4]): 19.21 E5 c/mL | Viability (GNMT clone 16; [5]): 99.2% | Viable Cell Density (GNMT clone 16; [5]): 40.8 E5 c/mL | Viability (GNMT clone 16; [6]): 98.7% | Viable Cell Density (GNMT clone 16; [6]): 4.02 E5 c/mL | Viability (GNMT clone 16; [7]): 98.5% | Viable Cell Density (GNMT clone 16; [7]): 14.07 E5 c/mL | Viability (GNMT clone 16; [8]): 99.1% | Viable Cell Density (GNMT clone 16; [8]): 31.09 E5 c/mL | Growth and viability in iron and zinc supplemented cultures compared to untreated (GNMT clone 16; clone 16, third passage): lower | Viability (GNMT clone 9; [3]): 99.6% | Viable Cell Density (GNMT clone 9; [3]): 3.45 E5 c/mL | Viability (GNMT clone 9; [4]): 99.2% | Viable Cell Density (GNMT clone 9; [4]): 21.94 E5 c/mL | Viability (GNMT clone 9; [5]): 99.1% | Viable Cell Density (GNMT clone 9; [5]): 38.38 E5 c/mL | Viability (GNMT clone 9; [6]): 100% | Viable Cell Density (GNMT clone 9; [6]): 3.54 E5 c/mL | Viability (GNMT clone 9; [7]): 99.2% | Viable Cell Density (GNMT clone 9; [7]): 19.65 E5 c/mL | Viability (GNMT clone 9; [8]): 99.3% | Viable Cell Density (GNMT clone 9; [8]): 39.74 E5 c/mL

CCOC(=O)c1ccc(NC2CCCCC2)c(N)c1 [Fer1, ferrostatin 1]
Viabilities by the end of the culture, treated versus untreated (GNMT clone 15): slightly higher viabilities

NC(CCS)C(=O)O [L-homocysteine, 2-amino-4-sulfanylbutanoic acid]
Growth in L-homocysteine supplemented cysteine free medium [1]: exhibited growth | Growth in L-homocysteine supplemented cysteine free medium [2]: exhibited growth

CCCCCCCC/C=C\CCCCCCCC(=O)O [OA, oleic acid]
Viable Cell Density (GNMT clone 16; [3]): 4.44 E5 c/mL | Viable Cell Density (GNMT clone 16; [4]): 22.52 E5 c/mL | Viable Cell Density (GNMT clone 16; [5]): 48.33 E5 c/mL | Growth and viabilities of OA exposed versus unexposed conditions (GNMT clone 16; clone 16, third passage, prior passages with 1 uM then 10 uM oleic acid): higher growth and viabilities | Viable Cell Density (GNMT clone 9; [3]): 3.85 E5 c/mL | Viable Cell Density (GNMT clone 9; [4]): 21.99 E5 c/mL | Viable Cell Density (GNMT clone 9; [5]): 42.9 E5 c/mL | Benefit of exposure to OA on growth and viability (GNMT clone 9; clone 9, third passage, prior passages with 1 uM then 10 uM oleic acid): not observed | Viabilities by the end of the culture, treated versus untreated (GNMT clone 15): slightly higher viabilities

CC1=C(C/C=C(\C)CCC[C@H](C)CCC[C@H](C)CCCC(C)C)C(=O)c2ccccc2C1=O [Vitamin K1]
Growth and viability with Vitamin K1 supplementation (GNMT clone 15; 10 uM Vitamin K1 on days 0, 4, 5 and 6, FIG. 11B): improved growth and viability | Growth and viability with Vitamin K1 supplementation (GNMT clone 19): improved growth and viability

O=S(=O)([O-])[O-].[Zn+2] [ZnSO4, zinc sulfate]
Viability (GNMT clone 16; [3]): 99.6% | Viable Cell Density (GNMT clone 16; [3]): 3.84 E5 c/mL | Viability (GNMT clone 16; [4]): 96.2% | Viable Cell Density (GNMT clone 16; [4]): 13.62 E5 c/mL | Viability (GNMT clone 16; [5]): 96% | Viable Cell Density (GNMT clone 16; [5]): 32.19 E5 c/mL | Viability (GNMT clone 16; [6]): 99.2% | Viable Cell Density (GNMT clone 16; [6]): 4.31 E5 c/mL | Viability (GNMT clone 16; [7]): 94.9% | Viable Cell Density (GNMT clone 16; [7]): 12.27 E5 c/mL | Viability (GNMT clone 16; [8]): 94.1% | Viable Cell Density (GNMT clone 16; [8]): 23.99 E5 c/mL | Growth and viability in iron and zinc supplemented cultures compared to untreated (GNMT clone 16; clone 16, third passage): lower | Viability (GNMT clone 9; [3]): 98.9% | Viable Cell Density (GNMT clone 9; [3]): 3.11 E5 c/mL | Viability (GNMT clone 9; [4]): 97.7% | Viable Cell Density (GNMT clone 9; [4]): 16.78 E5 c/mL | Viability (GNMT clone 9; [5]): 96.4% | Viable Cell Density (GNMT clone 9; [5]): 30.16 E5 c/mL | Viability (GNMT clone 9; [6]): 100% | Viable Cell Density (GNMT clone 9; [6]): 3.55 E5 c/mL | Viability (GNMT clone 9; [7]): 97.9% | Viable Cell Density (GNMT clone 9; [7]): 17.26 E5 c/mL | Viability (GNMT clone 9; [8]): 96.7% | Viable Cell Density (GNMT clone 9; [8]): 32.29 E5 c/mL
